Test results: paper PMC9576799, “Discovery of small molecule inhibitors that effectively disrupt IQGAP1-Cdc42 interaction in breast cancer cells” (Scientific Reports, 2022)
Where two headings read alike, the source gives them in different places.

Assays:
His-Cdc42 = target: T1, His-Cdc42 (Homo sapiens, UniProt P60953, Q61L); test: Microscale thermophoresis (MST); assay type: binding; conditions: for effect on thermophoretic motion of Cdc42 / Kd: MST; for effect on thermophoretic motion of Cdc42: 500 µM to 244 nM; for Kd: 100 nM labeled His-Cdc42, n = 3
T1 construct: made in house; host or cells: E. coli
Protocol: Two-fold serial dilutions of compounds were first prepared in DMSO, then further diluted in PBS containing 0.05% Tween-20. […] Samples were loaded into Monolith™ standard capillaries and measured using Monolith NT.115 (Nanotemper Technologies) with 50% excitation power and 50% MST power, with laser on and off times of 30 s and 5 s, respectively. The Kd values were calculated by evaluating the thermophoresis and T-Jump signals using MO.Affinity Analysis software (Nanotemper Technologies). All experiments were conducted in three biological replicates.

[1] = system: endogenous IQGAP1/Cdc42 interaction; test: Immunoprecipitation of endogenous IQGAP1 and co-precipitated Cdc42 in HEK293 cell lysates; assay type: binding; conditions: 0.2-50 µM
Protocol: Each compound was added to lysates from HEK293 cells at a final concentration of 50 µM and endogenous IQGAP1 was immunoprecipitated. DMSO alone was used as the negative control (100% binding).
HEK293 cells were plated in 10-cm dishes to reach 80% confluence. The following day, the cells were washed with ice-cold phosphate-buffered saline (PBS) and lysed with 500 µl of Buffer A (50 mM Tris–HCl, pH 7.4, 150 mM NaCl, and 1% Triton X-100) supplemented with complete protease and phosphatase inhibitors (Roche, Mannheim, Germany). Lysates were subjected to two rounds of sonication for 10 s each, and insoluble material was precipitated by centrifugation at 13,000 xg for 10 min at 4 °C. Supernatants were precleared with protein A-Sepharose beads for 1 h. DMSO (vehicle) or different concentrations of the compounds (0.2, 0.6, 1, 5, 16 or 50 µM) were added to equal amounts of protein lysates for 30 min. Protein A-Sepharose beads and anti-IQGAP1 polyclonal antibodies were then added for 2 h at 4 °C. Anti-rabbit IgG antibodies were used as the immunoprecipitation control. Samples were washed five times with Buffer A, resolved by SDS-PAGE and transferred to polyvinylidene fluoride (PVDF) membranes (Millipore Corp). Membranes were probed with anti-IQGAP1 and anti-Cdc42 antibodies. After secondary antibody detection, Western blots were imaged using a LI-COR Odyssey infrared imaging system (LI-COR, USA). Western blot quantification and analysis was conducted using Image Studio™ Lite (LI-COR Biosciences).

[2] = Metabolic half-life in rat liver microsome lysates; assay type: in vitro ADME; conditions: minimum detectable half-life of 1 min; for half-life: read-out: T1/2 metabolic half-life
GST-Cdc42-Q61L-His = target: T2, GST-Cdc42-Q61L-His (Homo sapiens, UniProt P60953, Q61L); test: HTRF counter-screen with double-tagged Cdc42; conditions: 100 nM GST-Cdc42-Q61L-His
T2 construct: His (hexa-histidine in the Results); made in house; host or cells: Escherichia coli BL-21
Protocol: Two different HTRF counter-screens were used to identify false positive hits. The two interacting proteins GST-IQGAP1-C and His-Cdc42-Q61L were replaced with His-tagged GST or Cdc42-Q61L containing GST at the N-terminus and His at the C-terminus (GST-Cdc42-Q61L-His).
First, GST-Cdc42-Q61L-His was titrated in parallel with the pre-mixed His-Cdc42-Q61L and GST-IQGAP1-C to comparatively match the signal level to the signal of the primary HTRF assay. We chose 100 nM GST-Cdc42-Q61L-His protein as the final concentration for the counter-screen. The assay protocol is outlined in Supplementary Table S2 online. Briefly, 4 μL/well of […] diluted in binding buffer was dispensed to the plates, followed by pinning 23 nL/well of selected hit compounds from the primary screening and addition of 2 μL/well premixed HTRF antibodies. After 3 h, 1 μL/well of 2.8 M potassium fluoride was added to the assay and the fluorescence signal was read on the Envision instrument. For controls, we used pre-mixed proteins GST-IQGAP1-C and His-Cdc42-Q61L (primary assay’s regular conditions) as IC100, and […] at 1.5 nM final concentration as IC0.
Supplementary Table S2: Counter-screening HTRF protocol.
Step Parameter Value Description
1a Protein 4 µL 100 nM His-GST (final concentration), diluted in
1b Controls 4 µL Column 2: GST-IQGAP1-C protein only [1.5nM] final
Column 3: pre-mixed proteins (regular assay
2 Compounds 23 nL Selected compounds were pin-transferred from DMSO
HTRF α-His-XL (5 ng/µL, 3X working concentration) +
3 antibodies 2 µL α-GST-K (0.7 ng/µL 3X working concentration),
pre-mix mixed in binding buffer
4 Time 3 Incubation (ambient temperature)
5 Reagent 1 µL 2.8 M KF (7x)
6 Detector HTRF Envision plate reader (excitation: 340 nm, emission: […]

MCF7 cells = test: IncuCyte proliferation assay, MCF7; assay type: cell-based, human; conditions: 72 h; for effect on proliferation: up to 50 µM
Protocol: MDA-MB-231 and MCF7 cells were grown to confluence, detached using trypsin–EDTA cell dissociation buffer (Gibco 12604013) and counted. Cells were plated into 384-well, clear-bottom, black, tissue culture treated plates (Corning 3683) using an automatic dispenser (Thermo Multidrop Combi SMART) at densities of 2000 cells/10 µL/well for MDA-MB-231 cells and 4000 cells/10 µL/well for MCF7 cells in DMEM supplemented with 5% FBS. After 4 h incubation at 37 °C with 5% CO2, the growth medium was replaced with 10 µL medium containing compounds at 16-point 1:2 serial dilutions with the final highest concentration of 50 µM for each compound. All samples containing compounds were plated in triplicate. Cells in the first column of the plate were treated with 0.5% DMSO as control. The plates were placed into an Incucyte SX5 Live-cell imaging system (Sartorius) and phase images were taken at 6-h intervals for 72 h with 10X objective lens. The growth medium containing compounds or DMSO was replenished after 24 h. The images were analyzed, and the growth curves generated by the Incucyte software 2020A using the basic analyzer mode.

[3] = Parallel artificial membrane permeation assay (PAMPA); assay type: in vitro ADME; conditions: for Papp: PAMPA, read-out: PAMPA passive permeability
MDA-MB-231 cells = test: Scratch wound migration assay; assay type: cell-based, human; conditions: for cell migration maximum efficiency / EC50: scratch wound, 72 h; for EC50: read-out: cell migration EC50
Protocol: MDA-MB-231 cells were grown to confluence and plated into a 96-well clear plate (Sartorius 4379) at 30,000 cells/100 µL/well in DMEM supplemented with 5% FBS. Cells were incubated at 37 °C with 5% CO2 overnight. Even wounds were created using a 96-pin wound device (Sartorius 4493) following the manufacturer’s protocol. Medium was then aspirated, and the cells were washed once with PBS pH 7.4 before adding 100 µL/well of fresh growth medium. Then 100 µL/well of growth medium containing compounds at an 8-point 1:2 titration dispensed into the cell plate resulting a final highest concentration of 50 µM for each compound. 0.5% DMSO was used as control. All samples were plated in triplicate. The plate was placed into an Incucyte SX5 Live-cell imaging system and phase images were taken in 2-h intervals for 72 h using the scratch wound setting. Medium was aspirated and replaced with a fresh medium containing compounds or DMSO after 24 h. The images were analyzed, and the wound density curves generated by the Incucyte software 2020A using the scratch wound analysis option.

T1 sequence (P60953 1-184 isoform P60953-1 Q61L): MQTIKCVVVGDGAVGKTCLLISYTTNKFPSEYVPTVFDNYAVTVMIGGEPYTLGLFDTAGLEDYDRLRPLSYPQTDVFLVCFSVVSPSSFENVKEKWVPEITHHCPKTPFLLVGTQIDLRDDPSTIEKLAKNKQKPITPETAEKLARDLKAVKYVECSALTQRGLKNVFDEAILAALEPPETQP
T2 sequence (P60953 2-191 isoform P60953-1 Q61L): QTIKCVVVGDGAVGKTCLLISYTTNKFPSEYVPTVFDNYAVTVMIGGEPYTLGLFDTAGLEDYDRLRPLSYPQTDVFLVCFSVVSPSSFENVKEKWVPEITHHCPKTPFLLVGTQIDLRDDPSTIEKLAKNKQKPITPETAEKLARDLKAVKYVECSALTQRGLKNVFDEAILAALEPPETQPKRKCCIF

Row | concentration above which precipitates formed (His-Cdc42; MST samples, PBS containing 0.05% Tween-20) | T1/2 metabolic half-life [2] | EC50 (MCF7 cells; confluency) | PAMPA passive permeability [3] | EC50 (MDA-MB-231 cells) | Kd (His-Cdc42; read-out: dissociation constant (Kd) for Cdc42) | half-life [2] | EC50 (GST-Cdc42-Q61L-His; read-out: EC50 in double-tagged Cdc42 counter-screen) | Papp [3] | Kd (His-Cdc42) | EC50 (GST-Cdc42-Q61L-His) | EC50 (MDA-MB-231 cells; Homo sapiens) | SMILES | effect on thermophoretic motion of Cdc42 (His-Cdc42) | effect on Cdc42 binding to IQGAP1 in immunoprecipitation [1] | activity in double-tagged Cdc42 counter-screen (GST-Cdc42-Q61L-His) | effect on proliferation (MCF7 cells) | effect on cell shape (MDA-MB-231 cells; 50 µM (Fig. S3)) | cell migration maximum efficiency (MDA-MB-231 cells) | inhibition at 50 µM (MDA-MB-231 cells; Homo sapiens, 50 μM, the highest concentration used, read-out: inhibition of cell migration)
1 | above 62.5 µM | 11.47 min | 6.54 µM | 675 ×10⁻⁶ cm/s | 2.7 µM |  |  |  |  |  |  |  | CCN(CC)CCn1c2ccccc2c2nc3ccc([N+](=O)[O-])cc3cc21 [MLS000332963] | did not affect the thermophoretic motion of Cdc42 | reduced the binding substantially | inactive | dose-dependent inhibitory effect | flatter and spread out more on the plastic | 39% | 
2 |  |  |  |  |  | 28.1 µM | 2.7 min | 4.47 µM | 77 ×10⁻⁶ cm/s |  |  |  | CCN1CCN(c2ncc3c(n2)CCN(Cc2cc(Br)cs2)C3)CC1 [NCGC00131308] |  | reduced the binding substantially |  | dose-dependent inhibitory effect |  |  | 57.7 ± 7.2%
3 |  |  |  |  |  |  |  |  |  |  |  |  | Cc1cccc(NC(=O)c2c(NC(=O)C(F)(F)F)sc3c2CCCCC3)c1 [NCGC00098561] | did not affect the thermophoretic motion of Cdc42 | reduced the binding substantially | not active |  |  |  | 
4 |  |  |  |  |  |  | 7.12 min |  | 177 ×10⁻⁶ cm/s | 96.2 µM | 6.31 µM | 12.9 µM | CCc1ccccc1Nc1ncnc2c1cnn2-c1ccc(Cl)cc1 [NCGC00138812] |  | reduced the binding substantially |  | dose-dependent inhibitory effect |  | 20% | 
